According to PMC7265341, “Quantifying CDK inhibitor selectivity in live cells” (Nature Communications, 2020):
“And” between values parts separate entries of the source, which are not always exact repeats. Equal entries are not always repeated.

Molecular target: T1, CDK9 (HiBiT, endogenous locus) (Homo sapiens, UniProt P50750)
T1 construct: endogenous in cells; host or cells: HEK293 edited by CRISPR/Cas9, transduced with LgBiT BacMam
Test: Target engagement in HEK293 endogenously edited (CRISPR/Cas9) with HiBiT on CDK9
Type: binding
Set-up: unit not given here

T1 sequence (P50750 whole entry): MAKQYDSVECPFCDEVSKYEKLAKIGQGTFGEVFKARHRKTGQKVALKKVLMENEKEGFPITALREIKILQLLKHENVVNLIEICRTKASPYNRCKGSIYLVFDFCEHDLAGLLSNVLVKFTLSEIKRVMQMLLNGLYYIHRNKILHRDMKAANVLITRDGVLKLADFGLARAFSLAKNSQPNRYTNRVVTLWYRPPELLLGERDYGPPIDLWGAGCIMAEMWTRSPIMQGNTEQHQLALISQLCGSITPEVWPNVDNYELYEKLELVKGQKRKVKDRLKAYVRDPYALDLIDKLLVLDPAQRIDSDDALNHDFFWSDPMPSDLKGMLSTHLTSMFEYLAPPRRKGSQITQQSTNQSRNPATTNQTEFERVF

CDK9 Occupancy Data, CRISPR/HiBiT (LOG10([BAY-1251152]) (LOG10(µM)) 0.045757): 108.918 and 104.91
CDK9 Occupancy Data, CRISPR/HiBiT (LOG10([BAY-1251152]) (LOG10(µM)) 0.522879): 117.335 and 92.6854
CDK9 Occupancy Data, CRISPR/HiBiT (LOG10([BAY-1251152]) (LOG10(µM)) 1): 97.495 and 102.505
CDK9 Occupancy Data, CRISPR/HiBiT (LOG10([BAY-1251152]) (LOG10(µM)) -0.43136): 105.11 and 102.705
CDK9 Occupancy Data, CRISPR/HiBiT (LOG10([BAY-1251152]) (LOG10(µM)) -0.90849): 108.717 and 93.6874
CDK9 Occupancy Data, CRISPR/HiBiT (LOG10([BAY-1251152]) (LOG10(µM)) -1.38561): 87.2745 and 99.499
CDK9 Occupancy Data, CRISPR/HiBiT (LOG10([BAY-1251152]) (LOG10(µM)) -1.86273): 72.6453 and 62.8257
CDK9 Occupancy Data, CRISPR/HiBiT (LOG10([BAY-1251152]) (LOG10(µM)) -2.33985): 30.9619 and 31.9639
Structure (SMILES): COc1cc(F)ccc1-c1cc(Nc2cc(CS(C)(=N)=O)ccn2)ncc1F (centres unmarked) [BAY-1251152]
